pIC50: −log10 of the molar value.
Molecular target: T1, human Prostaglandin D Synthase (GST2) (Homo sapiens, UniProt O60760)
T1 construct: the open reading frame of human Prostaglandin D Synthase was amplified from cDNA; made in house; host or cells: E. coli TOP10F'
Assay: Homogeneous biochemical assay of human Prostaglandin D Synthase (GST2) based on its glutathion-S-transferase activity (GSH conjugation to monochlorobimane, fluorescence)
Conditions: not given
Excerpt: Homogeneous, Biochemical Assay Monitoring the Activity of Human Prostaglandin D Synthase Based on the Glutathion-S-Transferase Activity of the Enzyme
Prostaglandin D2 synthesis by Prostaglandin D synthase (GST2) requires transfer of Glutathion (GSH) to the substrate, Prostaglandin H2. […] Since the Prostaglandin D2 synthesis is absolutely dependent on the GST activity of the enzyme, assays monitoring the GST activity should allow to identify specific inhibitors of Prostaglandin D2 synthetic activity. The assay principle used is based on enzymatic conjugation of GSH to Monochlorobimane (MCB), that becomes fluorescent upon this chemical modification. Therefore, the enzymatic reaction can be monitored by total fluorescence measurement.
In brief, the open reading frame of human Prostaglandin D Synthase was amplified from cDNA using the primer pair:
This construct allows prokaryotic expression of Prostaglandin D Synthase as fusion protein with a N-terminal hexa-histidine tag, referred to as NHis-Prostaglandin D Synthase.
Expression of NHis-Prostaglandin D Synthase was in E. coli TOP10F′ (Invitrogen, Germany, cat. no. C3030-03). […] When the culture had reached a density corresponding to an A600 of 0.6, an equal volume of room temperature LB/ampicillin was added. […] Cells harvested by centrifugation were resuspended in 50 mM tris(hydroxymethyl)aminomethane hydrochloride pH 7.5 (Tris/HCl, Sigma, cat. no. T5941).
Removal of unbound material was with 100 ml lysis buffer. Elution was with 50 ml of 50 mM Tris/HCl pH 7.5, 300 mM imidazol (Sigma, Germany, cat. no. I2399)/HCl pH 7.5). […] Aliquots were shock frozen in liquid nitrogen and stored at −80° C.
All assay components were diluted in reaction buffer, 50 mM MES/KOH (pH 6.1), 0.7 mM GSH (Sigma, G4251), 2 mM MgCl2 (Sigma, M2670), 0.05% Pluronic F127 (Sigma, P2443), and stored on ice prior to use. Compounds were diluted in 90% DMSO yielding final assay concentrations from the picomolar to three digit micromolar range.
Total fluorescent measurement was carried out with excitation and emission wavelength of 390 and 460 nm, respectively (BMG Fluostar Optima).

T1 sequence (O60760 whole entry): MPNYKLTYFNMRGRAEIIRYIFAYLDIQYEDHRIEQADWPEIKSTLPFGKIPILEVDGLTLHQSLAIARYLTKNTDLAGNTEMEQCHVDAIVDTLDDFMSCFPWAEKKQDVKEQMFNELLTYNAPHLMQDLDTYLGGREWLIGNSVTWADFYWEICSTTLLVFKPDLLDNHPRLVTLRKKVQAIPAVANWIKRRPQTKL

| SMILES | pIC50 |
| --- | --- |
| CCN(CC)C(=O)c1ccc(NC(=O)N2CCN(C(=O)c3cccc(F)c3)CC2)cc1 [Compound 102, 4-(3-Fluoro-benzoyl)-piperazine-1-carboxylic acid (4-diethylcarbamoyl-phenyl)-amide] | 6.00 to 7.00 |

Same assay, conditions: given beside the compound name in Examples 1 to 167; read-out: Potency Range (GST2 IC50)

| pIC50 | SMILES |
| --- | --- |
| 7.00 to 7.96 | O=C(Nc1ccc(Br)c(F)c1)N1CCN(C(=O)c2cccc(F)c2)CC1 [Compound 88, 4-(3-Fluoro-benzoyl)-piperazine-1-carboxylic acid (4-bromo-3-fluoro-phenyl)-amide] |
| 7.00 to 7.96 | O=C(Nc1ccc(-c2cc[nH]n2)cc1)N1CCN(C(=O)c2cccc(F)c2)CC1 [Compound 89, 4-(3-Fluoro-benzoyl)-piperazine-1-carboxylic acid [4-(1H-pyrazol-3-yl)-phenyl]-amide] |
| 7.00 to 7.96 | Cc1nc(-c2ccc(NC(=O)N3CCN(C(=O)c4cccc(F)c4)CC3)cc2)cs1 [Compound 90, 4-(3-Fluoro-benzoyl)-piperazine-1-carboxylic acid [4-(2-methyl-thiazol-4-yl)-phenyl]-amide] |
| 7.00 to 7.96 | O=C(Nc1ccc(S(=O)(=O)N2CCOCC2)cc1)N1CCN(C(=O)c2cccc(F)c2)CC1 [Compound 91, 4-(3-Fluoro-benzoyl)-piperazine-1-carboxylic acid [4-(morpholine-4-sulfonyl)-phenyl]-amide] |
| 6.00 to 7.00 | O=C(Nc1cccc(S(=O)(=O)N2CCOCC2)c1)N1CCN(C(=O)c2cccc(F)c2)CC1 [Compound 92, 4-(3-Fluoro-benzoyl)-piperazine-1-carboxylic acid [3-(morpholine-4-sulfonyl)-phenyl]-amide] |
| 6.00 to 7.00 | CNC(=O)c1cccc(NC(=O)N2CCN(C(=O)c3cccc(F)c3)CC2)c1 [Compound 93, 4-(3-Fluoro-benzoyl)-piperazine-1-carboxylic acid (3-methylcarbamoyl-phenyl)-amide] |
| 6.00 to 7.00 | COC(=O)c1cc(NC(=O)N2CCN(C(=O)c3cccc(F)c3)CC2)ccc1F [Compound 94, 2-Fluoro-5-{[4-(3-fluoro-benzoyl)-piperazine-1-carbonyl]-amino}-benzoic acid methyl ester] |
| 6.00 to 7.00 | COC(=O)c1ccc(NC(=O)N2CCN(C(=O)c3cccc(F)c3)CC2)cc1F [Compound 95, 2-Fluoro-4-{[4-(3-fluoro-benzoyl)-piperazine-1-carbonyl]-amino}-benzoic acid methyl ester] |
| 6.00 to 7.00 | O=C(O)c1ccc(NC(=O)N2CCN(C(=O)c3cccc(F)c3)CC2)cc1F [Compound 96, 2-Fluoro-4-{[4-(3-fluoro-benzoyl)-piperazine-1-carbonyl]-amino}-benzoic acid] |
| 6.00 to 7.00 | O=C(Nc1ccc(C(=O)N2CCOCC2)c(F)c1)N1CCN(C(=O)c2cccc(F)c2)CC1 [Compound 97, 4-(3-Fluoro-benzoyl)-piperazine-1-carboxylic acid [3-fluoro-4-(morpholine-4-carbonyl)-phenyl]-amide] |
| 6.00 to 7.00 | O=C(Nc1ccc(F)nc1)c1ccc(NC(=O)N2CCN(C(=O)c3cccc(F)c3)CC2)cc1F [Compound 99, 4-(3-Fluoro-benzoyl)-piperazine-1-carboxylic acid [3-fluoro-4-(6-fluoro-pyridin-3-ylcarbamoyl)-phenyl]-amide] |
| 6.00 to 7.00 | O=C(O)c1ccc(NC(=O)N2CCN(C(=O)c3cccc(F)c3)CC2)cc1 [Compound 100, 4-{[4-(3-Fluoro-benzoyl)-piperazine-1-carbonyl]-amino}-benzoic acid] |

More lines, now with the values behind:

| SMILES | pIC50 |
| --- | --- |
| O=C(Nc1nc2ccccc2s1)N1CCN(C(=O)c2cccc(F)c2)CC1 [Compound 65, 4-(3-Fluoro-benzoyl)-piperazine-1-carboxylic acid benzothiazol-2-ylamide] | 7.00 to 7.96 |
| O=C(Nc1nc2ccc(F)cc2s1)N1CCN(C(=O)c2cccc(F)c2)CC1 [Compound 66, 4-(3-Fluoro-benzoyl)-piperazine-1-carboxylic acid (6-fluoro-benzothiazol-2-yl)-amide] | 7.00 to 7.96 |
| O=C(Nc1nc2ccc(OC(F)(F)F)cc2s1)N1CCN(C(=O)c2cccc(F)c2)CC1 [Compound 67, 4-(3-Fluoro-benzoyl)-piperazine-1-carboxylic acid (6-trifluoromethoxy-benzothiazol-2-yl)-amide] | 7.00 to 7.96 |
| O=C(Nc1nc2ccc(Br)cc2s1)N1CCN(C(=O)c2cccc(F)c2)CC1 [Compound 68, 4-(3-Fluoro-benzoyl)-piperazine-1-carboxylic acid (6-bromo-benzothiazol-2-yl)-amide] | 8.00 to 9.00 |
| O=C(Nc1nc(-c2ccccc2)ns1)N1CCN(C(=O)c2cccc(F)c2)CC1 [Compound 70, 4-(3-Fluoro-benzoyl)-piperazine-1-carboxylic acid (3-phenyl-[1,2,4]thiadiazol-5-yl)-amide] | 7.00 to 7.96 |
| O=C(Nc1nnc(-c2ccncc2)s1)N1CCN(C(=O)c2cccc(F)c2)CC1 [Compound 71, 4-(3-Fluoro-benzoyl)-piperazine-1-carboxylic acid (5-pyridin-4-yl[1,3,4]thiadiazol-2-yl)-amide] | 7.00 to 7.96 |
| O=C(Nc1nnc(-c2ccccc2)o1)N1CCN(C(=O)c2cccc(F)c2)CC1 [Compound 72, 4-(3-Fluoro-benzoyl)-piperazine-1-carboxylic acid (5-phenyl-[1,3,4]oxadiazol-2-yl)-amide] | 7.00 to 7.96 |
| O=C(Nc1nc(-c2ccccn2)cs1)N1CCN(C(=O)c2cccc(F)c2)CC1 [Compound 73, 4-(3-Fluoro-benzoyl)-piperazine-1-carboxylic acid (4-pyridin-2-yl-thiazol-2-yl)-amide] | 7.00 to 7.96 |
| O=C(Nc1nc(-c2cccnc2)cs1)N1CCN(C(=O)c2cccc(F)c2)CC1 [Compound 74, 4-(3-Fluoro-benzoyl)-piperazine-1-carboxylic acid (4-pyridin-3-yl-thiazol-2-yl)-amide] | 7.00 to 7.96 |
| O=C(Nc1nc(-c2ccncc2)cs1)N1CCN(C(=O)c2cccc(F)c2)CC1 [Compound 75, 4-(3-Fluoro-benzoyl)-piperazine-1-carboxylic acid (4-pyridin-4-yl-thiazol-2-yl)-amide] | 6.00 to 7.00 |
| Cc1nc(-c2cccc(NC(=O)N3CCN(C(=O)c4cccc(F)c4)CC3)c2)cs1 [Compound 77, 4-(3-Fluoro-benzoyl)-piperazine-1-carboxylic acid [3-(2-methyl-thiazol-4-yl)-phenyl]-amide] | 6.00 to 7.00 |
| Cc1nccc(-c2cccc(NC(=O)N3CCN(C(=O)c4cccc(F)c4)CC3)c2)n1 [Compound 78, 4-(3-Fluoro-benzoyl)-piperazine-1-carboxylic acid [3-(2-methyl-pyrimidin-4-yl)-phenyl]-amide] | 7.00 to 7.96 |
| Cc1cc2nc(NC(=O)N3CCN(C(=O)c4cccc(F)c4)CC3)sc2cc1C [Compound 79, 4-(3-Fluoro-benzoyl)-piperazine-1-carboxylic acid (5,6-dimethyl-benzothiazol-2-yl)-amide] | 8.00 to 9.00 |
| Cc1ccc2nc(NC(=O)N3CCN(C(=O)c4cccc(F)c4)CC3)sc2c1 [Compound 80, 4-(3-Fluoro-benzoyl)-piperazine-1-carboxylic acid (6-methyl-benzothiazol-2-yl)-amide] | 8.00 to 9.00 |
| COc1ccc2nc(NC(=O)N3CCN(C(=O)c4cccc(F)c4)CC3)sc2c1 [Compound 81, 4-(3-Fluoro-benzoyl)-piperazine-1-carboxylic acid (6-methoxy-benzothiazol-2-yl)-amide] | 8.00 to 9.00 |
| O=C(Nc1nc2ccc(Cl)cc2s1)N1CCN(C(=O)c2cccc(F)c2)CC1 [Compound 82, 4-(3-Fluoro-benzoyl)-piperazine-1-carboxylic acid (6-chloro-benzothiazol-2-yl)-amide] | 8.00 to 9.00 |
| CCOC(=O)c1ccc2nc(NC(=O)N3CCN(C(=O)c4cccc(F)c4)CC3)sc2c1 [Compound 83, 2-{[4-(3-Fluoro-benzoyl)-piperazine-1-carbonyl]-amino}-benzothiazole-6-carboxylic acid ethyl ester] | 7.00 to 7.96 |
| CC(=O)Nc1ccc2nc(NC(=O)N3CCN(C(=O)c4cccc(F)c4)CC3)sc2c1 [Compound 84, 4-(3-Fluoro-benzoyl)-piperazine-1-carboxylic acid (6-acetylamino-benzothiazol-2-yl)-amide] | 7.00 to 7.96 |
| N#Cc1cc(NC(=O)N2CCN(C(=O)c3cccc(F)c3)CC2)ccc1F [Compound 85, 4-(3-Fluoro-benzoyl)-piperazine-1-carboxylic acid (3-cyano-4-fluoro-phenyl)-amide] | 6.00 to 7.00 |
| O=C(Nc1cccc(-c2ccncc2)c1)N1CCN(C(=O)c2cccc(F)c2)CC1 [Compound 86, 4-(3-Fluoro-benzoyl)-piperazine-1-carboxylic acid (3-pyridin-4-yl-phenyl)-amide] | 6.00 to 7.00 |
| O=C(Nc1cccc(-c2cccnc2)c1)N1CCN(C(=O)c2cccc(F)c2)CC1 [Compound 87, 4-(3-Fluoro-benzoyl)-piperazine-1-carboxylic acid (3-pyridin-3-yl-phenyl)-amide] | 6.00 to 7.00 |
